Assay results: US20220153732A1, “PROTEIN SECRETION INHIBITORS” (KEZAR LIFE SCIENCES, priority 2019, published 2022)
Read-outs that look alike come from different tables or passages of the source.

What was measured:
Type in all cases: cell-based
[1] = test system: PD1-ss+10aa/Gaussia Luciferase; assay: Dox-Induced PD1-ss-Gluc Assay; details: 293FRT/TO cells, read-out: 24 hr Dox Inducible PD1ssGluc 293FRT/TO: Mean IC50
Procedure, shortened: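 Stable cell line carrying PD1-ss+10aa/Gaussia luciferase cDNA under T-REx (doxycycline-inducible) control, plated the day before assay. Compound dilutions in DMSO/media containing doxycycline added and incubated at 37° C, 5% CO2. Undefined stereocentres: data refer to stereoisomer mixtures.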

[2] = test system: TNFα-FL/Gaussia Luciferase; assay: Dox Induced TNFα-FL-Gluc Assay; details: 293FRT/TO cells, read-out: 24 hr Dox Inducible TNFaFLGluc 293FRT/TO: Mean IC50
Procedure, shortened: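 A stable T-REx cell line carrying doxycycline-inducible TNFα-FL/Gaussia luciferase was plated the day before assay. Compound dilutions in DMSO/media containing doxycycline were then added and incubated at 37° C, 5% CO2.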

[3] = test system: HER3-ss+4aa/Gaussia Luciferase; assay: Dox-Induced Her3-ss-Gluc Assay; details: 293FRT/TO cells, read-out: 24 hr Dox Inducible Her3(ss + 4)Gluc 293FRT/TO: Mean IC50
Procedure, shortened: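 Stable T-REx cell line carrying a doxycycline-regulated HER3-ss+4aa/Gaussia luciferase insert, plated the day before assay. Compound dilutions in DMSO/media with doxycycline added, then incubated at 37° C., 5% CO2. Stereoisomer mixtures tested where stereochemistry is not drawn.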

[4] = test system: IL-2-FL/Gaussia Luciferase; assay: Dox Induced IL2-FL-Gluc Assay; details: 293FRT/TO cells, read-out: 24 hr Dox Inducible IL2FLGIuc 293FRT/TO: Mean IC50
Procedure, shortened: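 Stable T-REx cell line expressing doxycycline-inducible IL-2-FL/Gaussia luciferase cDNA, plated the day before assay. Compound dilutions in DMSO/media containing doxycycline added and incubated at 37° C., 5% CO2. Unspecified stereochemistry means data refer to a stereoisomer mixture.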

[5] = test system: human multiple myeloma cell line NCI-H929; assay: H929 Cell Viability Assay; details: 48 hr, NCI-H929 cells, Celltiter-Glo, read-out: 48 hr H929 Viability Celltiter-Glo: Mean EC50
Method: Plates were incubated at 37° C., 5% CO2 for 48 hours. After 48 hours, Celltiter-Glo® (Promega) was added to each well and luciferase signal was quantified using Tecan Infinite M1000 Pro for cell viability determination.
For chemical structures that include one or more stereoisomers, but are illustrated without indicating stereochemistry, the assay data refers to a mixture of stereoisomers.

[6] = test system: human multiple myeloma cell line U266B1; assay: U266 Cell Viability Assay; details: U-266, 48 hr, U266B1 cells, Celltiter-Glo, read-out: 48 hr U266 Viability Celltiter-Glo: Mean EC50
Procedure, shortened: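 U266B1 myeloma cells treated with compound dilutions in DMSO/media for 48 h at 37 °C, 5% CO2. Viability read by CellTiter-Glo luminescence. Stereochemically undefined structures were tested as stereoisomer mixtures.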

[7] = 24 hr doxycycline induction, Gaussia luciferase signal

| IC50 ([1]; 24 hr, doxycycline-induced) [nM] | IC50 ([2]; 24 hr, doxycycline-induced) [µM] | IC50 ([3]; 24 hr, doxycycline-induced) [nM] | IC50 ([4]; 24 hr, doxycycline-induced) [nM] | EC50 [5] [µM] | EC50 [6] [µM] | IC50 [1, 7] [nM] | IC50 [2, 7] [µM] | IC50 [3, 7] [nM] | IC50 [4, 7] [nM] | Structure (SMILES) |
| --- | --- | --- | --- | --- | --- | --- | --- | --- | --- | --- |
| 679 | > 25 | 8810 | > 25000 | > 25 | > 25 | – | – | – | – | O=C(Nc1nc(/C=C/c2ncccn2)cs1)c1cccn1Cc1ccncc1 [Compound A307] |
| – | – | – | – | > 25 | > 25 | 4620 | > 25 | 23000 | > 25000 | COCc1csc(NC(=O)c2cccn2Cc2ccncc2)n1 [Compound A81] |
| – | – | – | – | > 25 | > 25 | > 25000 | > 25 | > 25000 | > 25000 | O=C(Nc1ncc(CCO)s1)c1cccn1Cc1ccncc1 [Compound A119] |
| > 25000 | > 25 | > 25000 | > 25000 | > 25 | > 25 | – | – | – | – | CC(=O)NCCc1nc(NC(=O)c2cccn2Cc2ccncc2)sc1C [Compound B22, N-(4-(2-acetamidoethyl)-5-methylthiazol-2-yl)-1-(pyridin-4-ylmethyl)-1H-pyrrole-2-carboxamide] |
| – | – | – | – | > 25 | > 25 | 2470 | > 25 | 7280 | 2020 | Cc1ccc2nc(NC(=O)c3cccn3Cc3ccncc3)sc2c1 [Compound A73] |
| – | – | – | – | > 25 | > 25 | 633 | > 20.3 | 1330 | 1980 | CCc1nc(NC(=O)c2cccn2Cc2ccncc2)sc1C [Compound A32, N-(4-ethyl-5-methylthiazol-2-yl)-1-(pyridin-4-ylmethyl)-1H-pyrrole-2-carboxamide] |
| – | – | – | – | > 25 | > 25 | 318 | 18.8 | 1910 | 1560 | O=C(Nc1nc(-c2ccccc2)cs1)c1cccn1Cc1ccncc1 [Compound A216, N-(4-phenylthiazol-2-yl)-1-(pyridin-4-ylmethyl)-1H-pyrrole-2-carboxamide] |
| – | – | – | – | 7.18 | 6.46 | 57 | 0.736 | 156 | 281 | O=C(Nc1nc(CCc2ccc(Cl)cc2)cs1)c1cccn1Cc1ccncc1 [Compound A180] |
| – | – | – | – | 9.27 | 19.9 | 152 | 0.929 | 367 | 500 | O=C(Nc1nc(CCc2ccccc2Cl)cs1)c1cccn1Cc1ccncc1 [Compound A178] |

Continued, molecule first:

| Structure (SMILES) | IC50 ([1]; 24 hr, doxycycline-induced) [nM] | IC50 ([2]; 24 hr, doxycycline-induced) [µM] | IC50 ([3]; 24 hr, doxycycline-induced) [nM] | IC50 ([4]; 24 hr, doxycycline-induced) [nM] | EC50 [5] [µM] | EC50 [6] [µM] | IC50 [1, 7] [nM] | IC50 [2, 7] [µM] | IC50 [3, 7] [nM] | IC50 [4, 7] [nM] |
| --- | --- | --- | --- | --- | --- | --- | --- | --- | --- | --- |
| O=C(Nc1nc(C2CC2c2ccccc2)cs1)c1cccn1CCCc1ccncc1 [Compound A215, N-(4-((1R,2R)-2-phenylcyclopropypthiazol-2-yl)-1-(3-(pyridin-4-yl)propyl)-1H-pyrrole-2-carboxamide] | – | – | – | – | 13.1 | > 25 | 443 | 2.49 | 720 | 1250 |
| O=C(Nc1nc([C@@H]2CCCCN2c2ccccc2)cs1)c1cccn1Cc1ccncc1 [Compound A332] | 64 | 0.516 | 97 | 82 | 4.29 | > 25 | – | – | – | – |
| COc1cc(Cn2cccc2C(=O)Nc2nc(C(C)(C)OC(C)C)cs2)cc(F)n1 [Compound A70, 1-((2-fluoro-6-methoxypyridin-4-yl)methyl)-N-(4-(2-isopropoxypropan-2-yl)thiazol-2-yl)-1H-pyrrole-2-carboxamide] | – | – | – | – | > 25 | > 25 | 2230 | > 25 | 9390 | 5670 |
| CC(C)OC(C)(C)c1csc(NC(=O)c2cc(C(=O)N(C)C)cn2Cc2ccncc2)n1 [Compound A111, N2-(4-(2-isopropoxypropan-2-yl)thiazol-2-yl)-N4,N4-dimethyl-1-(pyridin-4-ylmethyl)-1H-pyrrole-2,4-dicarboxamide] | – | – | – | – | > 25 | > 25 | > 25000 | > 25 | > 25000 | > 25000 |
| CC(C)OC(C)(C)c1csc(NC(=O)c2cccn2Cc2ccc(C#N)cc2)n1 [Compound A80, 1-(4-cyanobenzyl)-N-(4-(2-isopropoxypropan-2-yl)thiazol-2-yl)-1H-pyrrole-2-carboxamide] | – | – | – | – | 21.9 | > 25 | 4220 | > 25 | 7880 | 3530 |
| O=C(Nc1nc(/C=C\c2ccccc2)cs1)c1cccn1Cc1ccncc1 [Compound A12, 1-(pyridin-4-ylmethyl)-N-(4-styrylthiazol-2-yl)-1H-pyrrole-2-carboxamide] | – | – | – | – | 18.6 | > 25 | 139 | 1.76 | 338 | 566 |
| CO[C@H]1CCN(c2ccccc2)[C@H]1c1csc(NC(=O)c2cccn2Cc2ccncc2)n1 [Compound A334] | 80 | 0.775 | 138 | 110 | 6.47 | 9.05 | – | – | – | – |
| Cc1sc(NC(=O)c2cccn2Cc2ccncc2)nc1/C=C/c1ccccc1 [Compound A297] | 66 | 2.82 | 251 | 687 | > 25 | > 25 | – | – | – | – |
| CO[C@H]1CC[C@H](/C=C/c2csc(NC(=O)c3cccn3Cc3ccncc3)n2)CC1 [Compound A253, N-(4-(2-((1r,4r)-4-methoxycyclohexyl)vinyl)thiazol-2-yl)-1-(pyridin-4-ylmethyl)-1H-pyrrole-2-carboxamide] | – | – | – | – | 10.8 | 15.6 | 220 | 4.2 | 672 | 1580 |
| CC(C)OC(C)(C)c1csc(NC(=O)c2cccn2Cc2ccn(C)c(=O)c2)n1 [Compound A127, N-(4-(2-isopropoxypropan-2-yl)thiazol-2-yl)-1-((1-methyl-2-oxo-1,2-dihydropyridin-4-yl)methyl)-1H-pyrrole-2-carboxamide] | – | – | – | – | > 25 | > 25 | > 25000 | > 25 | > 25000 | > 25000 |
| CN(C(=O)c1cccn1Cc1ccncc1)c1nccs1 [Compound B13] | > 25000 | > 25 | > 25000 | > 25000 | > 25 | > 25 | – | – | – | – |
| CC(C)OC(C)(C)c1csc(NC(=O)c2ccnn2Cc2ccncc2)n1 [Compound A112, N-(4-(2-isopropoxypropan-2-yl)thiazol-2-yl)-1-(pyridin-4-ylmethyl)-1H-pyrazole-5-carboxamide] | – | – | – | – | > 25 | > 25 | > 25000 | > 25 | > 25000 | > 25000 |
| CC(C)OC(C)(C)c1csc(NC(=O)c2cccn2CC2CCOCC2)n1 [Compound A71] | – | – | – | – | > 25 | > 25 | 2280 | > 25 | 5440 | 3540 |
| O=C(Nc1nc(/C=C/c2ccc(OC3CC3)cc2F)cs1)c1cccn1Cc1ccncc1 [Compound A304] | 20 | 0.236 | 108 | 178 | 6.27 | 14.3 | – | – | – | – |
